Among the test systems are KM12 colon; HOP-62 NSCLC; SF-295 CNS; ACHN renal; SK-MEL-5 melanoma; NCI-H460 lung; HL-60(TB) leukemia; HT29 colon; EKVX NSCLC; MDA-MB-435.
Common to all, as to assay: NCI anticancer screen, dose series, 48 h

Several values for one entry are separate records, joined by “and”; a condition that tells them apart may be missing. Equal entries are not always repeated.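 48-hour exposure; five concentrations; linearly interpolated endpoints. GI50 is the concentration that inhibits growth by half. Definition used: TGI = concentration required for complete inhibition of growth.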

Take `N#CNC(N)=NCc1ccccc1`: the TGI in the experiment on KM12 colon, in the experiment with HOP-62 NSCLC, in the experiment on SF-295 CNS, with ACHN renal, with SK-MEL-5 melanoma and in the experiment on NCI-H460 lung was above 100 µM in each case. Also, the TGI in the experiment on HL-60(TB) leukemia and in the experiment on HT29 colon was above 100 µM each time.

With `Cc1cc([N+](=O)[O-])c(C)c2c1[nH]c1ccc(Cl)cc12`, the TGI in the experiment on KM12 colon, in the experiment on HOP-62 NSCLC, in the experiment on SF-295 CNS, with ACHN renal, in the experiment with SK-MEL-5 melanoma and with NCI-H460 lung was above 100 µM throughout. The TGI in the experiment with HL-60(TB) leukemia, in the experiment on HT29 colon and in the experiment with EKVX NSCLC was above 100 µM each time.

On to `CN(C)CCNC(=O)c1cccc2c1Nc1ccccc1S2`, for which the TGI with KM12 colon is 26.4 µM; in the experiment on HOP-62 NSCLC, 33.4 µM; in the experiment on SF-295 CNS, 27.7 µM; with SK-MEL-5 melanoma, 26.3 µM; in the experiment with NCI-H460 lung, 25.7 µM; in the experiment with HL-60(TB) leukemia, 19.2 µM. For the same compound, the TGI with HT29 colon is 25 µM; in the experiment on EKVX NSCLC, 18.7 µM.

On to `Cc1c2ccnc(C(N)=O)c2c(C)c2c1[nH]c1ccccc12`, for which the GI50 with KM12 colon is 0.651 µM; in the experiment with HOP-62 NSCLC it was 4.03 µM; with SF-295 CNS it was 4.37 µM; in the experiment with NCI-H460 lung, 2.62 µM; with HL-60(TB) leukemia, 4.36 µM; in the experiment on HT29 colon, 4.12 µM. The GI50 with EKVX NSCLC was 6.56 µM. For the same compound, the TGI with KM12 colon was 47.2 µM and 56.1 µM; in the experiment on HOP-62 NSCLC it was 26.8 µM and 16.9 µM; with SF-295 CNS, 25.6 µM and 22.3 µM; with ACHN renal, 13.8 µM; in the experiment with SK-MEL-5 melanoma it was 13.6 µM; in the experiment with NCI-H460 lung, 16.2 µM and 13.7 µM. The TGI was 38.3 µM and > 100 µM in the experiment on HL-60(TB) leukemia; 23.2 µM and 20.4 µM in the experiment with HT29 colon; 35.3 µM and 46.8 µM in the experiment with EKVX NSCLC.

Take `CN(C)c1nc(Oc2nc(N(C)C)nc(N(C)C)n2)nc(N(C)C)n1`: the TGI with KM12 colon, with SF-295 CNS, with ACHN renal, in the experiment with SK-MEL-5 melanoma, with NCI-H460 lung and in the experiment with HL-60(TB) leukemia was above 100 µM throughout. The TGI in the experiment with HT29 colon and in the experiment on EKVX NSCLC was above 100 µM in each case.

For `CSCC[C@@H](NC(=O)[C@H](CC(C)C)NC(=O)C(Cc1cnc[nH]1)NC(=O)CNC(=O)[C@@H](NC(=O)[C@H](C)NC(=O)[C@H](Cc1c[nH]c2ccccc12)NC(=O)[C@H](CCC(N)=O)NC(=O)[C@@H](N)CC(N)=O)C(C)C)C(N)=O` (some centres undefined), the TGI in the experiment on KM12 colon, in the experiment on HOP-62 NSCLC, in the experiment with SF-295 CNS, in the experiment on SK-MEL-5 melanoma, in the experiment with NCI-H460 lung and with HL-60(TB) leukemia was above 100 µM each time. Further, the TGI with HT29 colon and with EKVX NSCLC was above 100 µM throughout.

Turning to `CCOC(=O)C1C(c2ccc(Cl)cc2Cl)NC(c2ccc(C)cc2)C(C(=O)OC)S1(=O)=O` (centres undefined), the TGI in the experiment on KM12 colon, in the experiment on HOP-62 NSCLC, with SF-295 CNS, with ACHN renal, in the experiment with SK-MEL-5 melanoma and with NCI-H460 lung was above 100 µM throughout. Moreover, the TGI with HL-60(TB) leukemia, with HT29 colon and with EKVX NSCLC was above 100 µM in each case.

Consider `COc1cc2nc(-c3ccc(Cl)cc3)cc(OCCCN3CCOCC3)c2cc1OC`, for which the GI50 was 3.87 µM in the experiment on KM12 colon; 1.08 µM with SF-295 CNS; 3.64 µM in the experiment with ACHN renal; 0.958 µM in the experiment with NCI-H460 lung; 0.61 µM in the experiment on HT29 colon; 1.73 µM in the experiment on EKVX NSCLC. In addition, the TGI in the experiment with KM12 colon is above 100 µM; with SF-295 CNS, 2.84 µM; in the experiment on ACHN renal, above 100 µM; in the experiment on NCI-H460 lung, above 100 µM; with HT29 colon, above 100 µM; in the experiment with EKVX NSCLC it was above 100 µM.

With `COc1cc2ccc3c4cc(OC)c(OC)cc4c[n+](C)c3c2cc1O`, the TGI with KM12 colon is above 100 µM; in the experiment on HOP-62 NSCLC, above 100 µM; in the experiment on ACHN renal, above 76.6 µM; in the experiment on SK-MEL-5 melanoma it was above 100 µM; with NCI-H460 lung it was above 86.7 µM; in the experiment on HL-60(TB) leukemia, above 100 µM. Further, the TGI in the experiment with HT29 colon and in the experiment on EKVX NSCLC was above 100 µM throughout.

For `Cc1nc(N)c(N2CCN(C#N)CC2)c(=O)[nH]1`, the TGI in the experiment with KM12 colon, in the experiment with HOP-62 NSCLC, with SF-295 CNS, in the experiment with ACHN renal, with MDA-MB-435 and in the experiment with NCI-H460 lung was above 100 µM throughout. For the same compound, the TGI in the experiment on HT29 colon and in the experiment with EKVX NSCLC was above 100 µM throughout.

With `COc1ccc(CNc2cnc3ccc(N)cc3n2)cc1`, the TGI with KM12 colon, in the experiment on HOP-62 NSCLC, with SF-295 CNS, with ACHN renal, in the experiment with SK-MEL-5 melanoma and with NCI-H460 lung was above 100 µM throughout. Also, the TGI in the experiment with HL-60(TB) leukemia, in the experiment with HT29 colon and with EKVX NSCLC was above 100 µM throughout.

For `COC(=O)/C=C(\C)CC/C=C(\C)CCC1OC1(C)C` (centres undefined), the TGI with KM12 colon was 20.8 µM; in the experiment on HOP-62 NSCLC it was 26.7 µM; in the experiment on SF-295 CNS, 21.3 µM; in the experiment on ACHN renal, 23.3 µM; with SK-MEL-5 melanoma, 22.4 µM; in the experiment with NCI-H460 lung it was 24.2 µM. The TGI with HL-60(TB) leukemia was determined as 6.6 µM; in the experiment with HT29 colon it was 27.6 µM; in the experiment on EKVX NSCLC, 24.3 µM.

For the compound `Nc1ncnc2c1nnn2C1C=CC(CP(=O)(O)O)C1` (centres undefined), the TGI in the experiment with KM12 colon, with HOP-62 NSCLC, with SF-295 CNS, in the experiment on ACHN renal, with SK-MEL-5 melanoma and with NCI-H460 lung was above 100 µM throughout. Moreover, the TGI in the experiment on HL-60(TB) leukemia, in the experiment on HT29 colon and in the experiment with EKVX NSCLC was above 100 µM in each case.

As to `CCCCCCCC(=O)OCC(COC(=O)C(C)(C)C)OC(=O)Cc1ccccc1` (centres undefined), the TGI in the experiment with HOP-62 NSCLC, in the experiment on SF-295 CNS, in the experiment with ACHN renal, with SK-MEL-5 melanoma, in the experiment on NCI-H460 lung and with HL-60(TB) leukemia was above 100 µM throughout.

As for `Cc1c(N2CCOCC2)nc2ccc(Cl)cc2c1-c1ccccc1`, the TGI with KM12 colon is above 100 µM; with HOP-62 NSCLC, above 100 µM; in the experiment with SF-295 CNS it was above 100 µM; in the experiment on ACHN renal, above 100 µM; with SK-MEL-5 melanoma it was 65.7 µM; with NCI-H460 lung, above 100 µM. For the same compound, the TGI in the experiment on HL-60(TB) leukemia, in the experiment with HT29 colon and with EKVX NSCLC was above 100 µM in each case.

For `CC1=NN(C(=O)Cc2ccccc2)C(=O)/C1=C\c1ccc(O)cc1`, the TGI in the experiment with KM12 colon, with HOP-62 NSCLC, in the experiment with SF-295 CNS, with ACHN renal, with SK-MEL-5 melanoma and in the experiment with NCI-H460 lung was above 100 µM each time. Moreover, the TGI in the experiment on HL-60(TB) leukemia, in the experiment on HT29 colon and in the experiment with EKVX NSCLC was above 100 µM throughout.

As to `COc1cc(C)c(CC/C(C)=C/Cc2cc(O)ccc2O)c(C)c1C`, the TGI in the experiment with KM12 colon, with SF-295 CNS, in the experiment with ACHN renal, in the experiment on SK-MEL-5 melanoma, with NCI-H460 lung and with HL-60(TB) leukemia was above 25 µM in each case. The TGI with HT29 colon and in the experiment with EKVX NSCLC was above 25 µM throughout.

As for `CC(=O)NNc1nc(C)c(C(=O)NNC(=O)C(=O)Nc2ccc([N+](=O)[O-])cc2[N+](=O)[O-])s1`, the TGI with KM12 colon, in the experiment on HOP-62 NSCLC, in the experiment on SF-295 CNS, in the experiment with ACHN renal, in the experiment with SK-MEL-5 melanoma and in the experiment on NCI-H460 lung was above 100 µM in each case. Moreover, the TGI in the experiment with HL-60(TB) leukemia, in the experiment with HT29 colon and in the experiment on EKVX NSCLC was above 100 µM in each case.

For the compound `O=[N+]([O-])c1ccc(C[P+]2(c3ccccc3)CCCCC2)cc1`, the TGI in the experiment on KM12 colon, in the experiment on HOP-62 NSCLC, in the experiment with SF-295 CNS, with ACHN renal, in the experiment with SK-MEL-5 melanoma and with NCI-H460 lung was above 100 µM each time. The TGI with HL-60(TB) leukemia, in the experiment with HT29 colon and in the experiment on EKVX NSCLC was above 100 µM in each case.

For the compound `Cn1nc(-c2ccc(S(=O)(=O)/N=C(\NN)Nc3ccc(Cl)cc3)s2)cc1C(F)(F)F`, the TGI in the experiment on KM12 colon stood at 31.5 µM; in the experiment with HOP-62 NSCLC, 32.3 µM; in the experiment on SF-295 CNS it was 31.3 µM; with ACHN renal, 33.8 µM; with SK-MEL-5 melanoma, 35.9 µM; in the experiment with NCI-H460 lung, 37.9 µM. In addition, the TGI in the experiment with HL-60(TB) leukemia was 22.6 µM; in the experiment with HT29 colon, 30.4 µM; in the experiment on EKVX NSCLC it was 28.2 µM.

As for `C[C@]12CCC3[C@@H](CCC45OC4C(=O)CC[C@]35C)C1Cc1cnn(-c3ccc(F)cc3)c1N2` (some centres undefined), the TGI in the experiment with KM12 colon is 55.1 µM; in the experiment on HOP-62 NSCLC it was above 100 µM; with SF-295 CNS, above 100 µM; in the experiment on ACHN renal it was above 100 µM; in the experiment on SK-MEL-5 melanoma, above 100 µM; in the experiment with NCI-H460 lung it was above 100 µM. Also, the TGI in the experiment with HL-60(TB) leukemia was 41.9 µM; in the experiment on HT29 colon, 33 µM; with EKVX NSCLC it was above 100 µM.

(Values after PubChem BioAssay (NCI).)
